Earlier results on 1 compound are cited in article PMC6422671 (British Journal of Clinical Pharmacology, 2019).

Structures are written as SMILES.

The conditions of this data set: preclinical study in dogs; cited from earlier work.

Take `C[C@@H](N)c1cc(Cl)ccc1Cn1c(=S)[nH]c(=O)c2[nH]ccc21` [AZD4831]: the “dose at which no adverse effects were observed” value is on record as 20 mg kg^−1 per day.
